Patent US20100311798A1, “2-AMINOOXAZOLINES AS TAAR1 LIGANDS” (priority 2009, published 2010)

Molecular target: mouse TAAR1 (Mus musculus, UniProt Q923Y8)
Test: Radioligand binding to TAAR1 in membranes of stably transfected HEK293 cells

mouse TAAR1, sequence (Q923Y8 whole entry): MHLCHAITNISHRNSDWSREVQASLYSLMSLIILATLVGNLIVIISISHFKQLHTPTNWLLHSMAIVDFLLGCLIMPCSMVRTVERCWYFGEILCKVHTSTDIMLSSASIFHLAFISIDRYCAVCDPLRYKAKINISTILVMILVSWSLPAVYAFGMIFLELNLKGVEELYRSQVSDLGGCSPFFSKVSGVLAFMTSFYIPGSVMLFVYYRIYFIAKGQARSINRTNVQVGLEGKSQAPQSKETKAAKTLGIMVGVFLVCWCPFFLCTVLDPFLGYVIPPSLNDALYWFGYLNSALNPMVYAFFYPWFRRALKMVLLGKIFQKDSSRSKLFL

Kd [nM]	SMILES	Ki [nM]
	C[C@H]1OC(N)=N[C@H]1CCc1ccc(Cl)cc1 [Example 14, (4S,5R)-4-[2-(4-Chloro-phenyl)-ethyl]-5-methyl-4,5-dihydro-oxazol-2-ylamine]	0.7
	C[C@@H]1OC(N)=N[C@H]1CCCc1ccccc1 [Example 11a, (4S,5S)-5-methyl-4-(3-phenyl-propyl)-4,5-dihydro-oxazol-2-ylamine]	5.8
	C[C@@H]1OC(N)=N[C@H]1CCC1CCCCC1 [Example 13, (4S,5S)-4-(2-Cyclohexyl-ethyl)-5-methyl-4,5-dihydro-oxazol-2-ylamine]	13.3
	C[C@@H]1OC(N)=N[C@@H]1CCc1ccccc1 [Example 7, (4R,5S)-5-Methyl-4-phenethyl-4,5-dihydro-oxazol-2-ylamine]	27.3
	C[C@H]1OC(N)=N[C@H]1CCCc1ccc(Cl)cc1 [Example 17, (4S,5R)-4-[3-(4-Chloro-phenyl)-propyl]-5-methyl-4,5-dihydro-oxazol-2-ylamine]	0.3
	C[C@H]1OC(N)=N[C@H]1CCC1CCCCC1 [Example 13a, (4S,5R)-4-(2-cyclohexyl-ethyl)-5-methyl-4,5-dihydro-oxazol-2-ylamine]	52.7
	C[C@H]1OC(N)=N[C@H]1CCc1ccccc1 [Example 8a, (4S,5R)-5-methyl-4-phenethyl-4,5-dihydro-oxazol-2-ylamine]	3.1
	C[C@@H]1OC(N)=N[C@H]1CCc1ccc(Cl)c(Cl)c1 [Example 15a, (4S,5S)-4-[2-(3,4-dichloro-phenyl)-ethyl]-5-methyl-4,5-dihydro-oxazol-2-ylamine]	8
	CC1OC(N)=N[C@H]1Cc1ccccc1 (single isomer, unassigned) [Example 12]	159
	C[C@@H]1OC(N)=N[C@H]1CCc1ccc(Cl)cc1 [Example 14a, (4S,5S)-4-[2-(4-chloro-phenyl)-ethyl]-5-methyl-4,5-dihydro-oxazol-2-ylamine]	1.8
	C[C@H]1OC(N)=N[C@H]1CCc1ccc(Cl)c(Cl)c1 [Example 15, (4S,5R)-4-[2-(3,4-Dichloro-phenyl)-ethyl]-5-methyl-4,5-dihydro-oxazol-2-ylamine]	0.6
60	c1ccc2c(c1)CCCC2C1=NCCN1 (racemic) [reference compound]	
	C[C@H]1OC(N)=N[C@H]1CCCc1ccccc1 [Example 11, (4S,5R)-5-Methyl-4-(3-phenyl-propyl)-4,5-dihydro-oxazol-2-ylamine]	0.9
	CCC1OC(N)=N[C@H]1CCc1ccccc1 (stereo partly drawn) [Example 9, (S)-5-Ethyl-4-phenethyl-4,5-dihydro-oxazol-2-ylamine]	17.1
	C[C@H]1OC(N)=N[C@H]1Cc1ccccc1 [Example 12a, (4S,5R)-4-benzyl-5-methyl-4,5-dihydro-oxazol-2-ylamine]	175
	CC1OC(N)=N[C@H]1CCc1ccccc1 (single isomer, unassigned) [Example 8]	1.7
